“Also recorded” adds a separate entry of the source.
Legend:
pregnant rats = assay: Time of delivery of timed-pregnant rats (hours after 8 a.m. of day 22 of gestation); assay type: in vivo, Sprague-Dawley rats
From the text: (§1) Nonpregnant and timed-pregnant Sprague-Dawley rats (200-250 g) from Charles-River Laboratories (Wilmington, Mass., USA) were delivered to animal care facilities on day 12 of gestation (day 1 being the day when a sperm plug was observed). The animals were housed separately, with free access to food and water and maintained on a constant 12-hour light-dark cycle. Control pregnant rats were spontaneously delivering on day 22 and 23 of gestation. For the measurements with the collascope the animals were anaesthetized (interperitoneal (i.p). injection) with a combination of xylazine (Gemini, Burns Veterinary Supply Inc, Rockville Center, N.Y., USA) and ketamine HCl (Ketaset; Fort Dodge Laboratories Inc, Fort Dodge, Iowa, USA). The animals were randomly allocated to one of the groups and sacrificed by carbon dioxide inhalation on day 3, 5, 7 and 10 postpartum or on day 25 of pregnancy in the groups with delayed delivery. All procedures were approved by the Animal Care and Use Committee of the St. Joseph's Hospital and Medical Center in Phoenix.
(§2) Prior to any treatment LIF measurements were made in control rats throughout pregnancy and postpartum to estimate the LIF profile during gestation (see FIG. 1). Pregnant rats (N=6/group) were treated (see FIG. 2), when not otherwise mentioned (see FIG. 3), from day 13 of pregnancy until delivery. Single daily treatments were performed at 8 a.m. and twice a day treatments at 8 a.m. and 8 p.m. All single injections (4 mg P4, 10 mg 17P, 2 mg promegestone (R5020)) were by the subcutaneous route (s.c.) in sesame oil (0.2 ml), which was also used for the controls. Vaginal gels were applied twice a day with a blunt ball-top needle deep into the vagina. Crinone was used for the P4 vaginal group (equivalent volumes of Crinone were used for 2-15 mg P4/treatment), all data presented show the results of the highest dose (total daily dose of 30 mg P4=⅓ of a applicator of 8% Crinone that contains 90 mg P4). For the vaginal promegestone (R5020) group micronized promegestone (R5020) (1 mg/treatment) was mixed into 0.18 ml of Replens. The control rats for the vaginal groups were treated with Replens (0.18 ml/treatment). For oral P4 treatments (15 mg, bid, vehicle sesame oil or H2O, volume 1 ml) gavage was used. For topical P4 treatment (15 mg, bid, P4 in 1 ml sesame oil, fish oil or in Replens) the drug was applied on the back of animals that were shaved on day 13, 17 and 21. In some animals (N=6) RU-486 (3 mg in 0.2 ml sesame oil) was injected subcutaneously once on day 16 of gestation.
Times of delivery (see also FIG. 4) of controls and various treatment groups were determined as hours after 8 a.m. of day 22 of gestation (FIG. 5). The expulsion of one pup was defined as delivery.
The cervical LIFs obtained at different times of gestation (FIG. 1) were compared using one-way analysis of variance (ANOVA) and multiple pairwise comparison procedures (Holm-Sidak). Student's t-test was used to compare the LIF results of a treatment group to its specific control group at any time in gestation and postpartum and also to determine the differences in delivery times (FIGS. 2, 3 and 5). A two-tailed probability value of P<0.05 was considered statistically significant.
FIG. 15 depicts delay of delivery times in timed pregnant rats treated with progesterone (P4) with different routes and vehicles. Treatment was started on day 13 of gestation and continued until delivery of pups or until delivery was blocked at […] (day 25) past day 22 of gestation. 8 am on day 22 is noted as hour 0 and delay is compared to control group treated only with vehicle. Treatment groups included: P4 in fish oil (vaginal, nasal, injection and topical groups), P4 in cocoa butter (rectal) and P4 in sesame oil (oral). All treatment groups received a total daily dose of 30 mg P4/day except the nasal and subcutaneous injection group which received 1 mg/day and 4 mg/day, respectively. […]

cervix of pregnant rats = assay: Cervical ripening assessed in vivo by collagen light-induced fluorescence (LIF) with the collascope; set-up: species or system Sprague-Dawley rats
From the text: as §1, §2
The amount of cervical collagen was evaluated in vivo (only in group subcutaneously P4, vaginal P4, subcutaneously 17P, vaginal promegestone (R5020), subcutaneously RU-486) by measurement of the auto-fluorescent properties of cross-linked collagen with a new prototype of an instrument, termed collascope (Reproductive Research Technologies, Houston, Tex., USA), as used previously with an earlier prototype.
After insertion of a small speculum into the vagina of the anesthetized animal, the optical probe of the collascope was placed on the surface of the exocervix. […] The exposure time for excitation was 100 msec. The average of 20 measurements of the detected fluorescent intensity (photon count) at 390 nm was used for each animal at any given time. Measurements of cervical light-induced fluorescence (LIF) were performed on nonpregnant animals once and in pregnant animals every other day starting at day 13 of gestation until delivery and on postpartum day 3 and/or postpartum day 5 (see FIGS. 2 and 3), and for some animals also on postpartum days 7 and 10 (see FIGS. 1 and 3).
The cervical LIFs obtained at different times of gestation (FIG. 1) were compared using one-way analysis of variance (ANOVA) and multiple pairwise comparison procedures (Holm-Sidak). […]

[1] = RU-486 3 mg s.c. once on day 16
[2] = s.c. injection daily in sesame oil from day 13 (P4 4 mg, 17P 10 mg, R5020 2 mg)

Compound | animals delivered after 24 hours (pregnant rats; [1]) | delivery of the remaining two animals after treatment (pregnant rats; [1]) [h] | time of induced preterm delivery after injection (pregnant rats; [1]) [h] | cervical ripening / softening (cervix of pregnant rats; [1]) | cervical LIF compared with vehicle controls (cervix of pregnant rats; RU-486 3 mg s.c. once on day 16, 24 and 72 hours after treatment) | cervical LIF compared with vehicle controls (cervix of pregnant rats; RU-486 3 mg s.c. once on day 16, 5 days after treatment) | effect on delivery (pregnant rats; [2]) | effect on delivery (pregnant rats; vaginal bid from day 13 (P4 15 mg as Crinone; R5020 1 mg in Replens)) | cervical LIF / cervical ripening compared with vehicle controls (cervix of pregnant rats; vaginal promegestone (R5020) 1 mg bid in Replens from day 13) | cervical LIF / cervical ripening compared with vehicle controls (cervix of pregnant rats; 17P 10 mg s.c. daily from day 13)
CC#C[C@]1(O)CC[C@H]2[C@@H]3CCC4=CC(=O)CCC4=C3[C@@H](c3ccc(N(C)C)cc3)C[C@@]21C [RU-486, mifepristone] | 4 of 6 | ≤ 48 | 24 to 48 | softened the cervix during preterm delivery; also recorded: cervical ripening occurs after 24 hours followed by preterm delivery | significantly lower (P<0.05) | higher | – | – | – | –
CCC(=O)[C@@]1(C)CC[C@H]2[C@@H]3CCC4=CC(=O)CCC4=C3CC[C@@]21C [promegestone (R5020), Promegestone] | – | – | – | – | – | – | inhibits delivery; also recorded: completely block delivery; also recorded: prevented delivery; also recorded: completely inhibited | inhibits delivery; also recorded: completely blocked delivery; also recorded: prevented delivery; also recorded: completely inhibited; also recorded: delivery is blocked | cervix is rigid; also recorded: significantly higher (P<0.05) in the promegestone (R5020) treated group (until day 19 only); also recorded: delayed cervical ripening but not at term immediately preceding delivery; also recorded: only attenuated until day 19 of gestation; also recorded: not significantly different from controls; also recorded: significant differences are observed only until day 19 | –
CCCCCC(=O)O[C@]1(C(C)=O)CC[C@H]2[C@@H]3CCC4=CC(=O)CC[C@]4(C)[C@H]3CC[C@@]21C [17P, 17-alpha-hydroxyprogesterone caproate] | – | – | – | – | – | – | Delivery was not changed; also recorded: does not block delivery at all; also recorded: no significant effect on delaying term delivery | – | – | cervix is rigid; also recorded: significantly higher (P<0.05) in the 17P treated group (until day 19 only); also recorded: delayed cervical ripening but not at term immediately preceding delivery; also recorded: only attenuated until day 19 of gestation; also recorded: partly delays ripening; also recorded: not significantly different from controls at day 21; also recorded: significant differences are only observed until day 19 of gestation
